Tests used:
[1] = biological target: T1, Xanthine dehydrogenase/oxidase (Bos taurus, UniProt P80457); test: Inhibition of bovine buttermilk xanthine oxidase by spectrophotometric analysis; settings: cattle
[2] = biological target: T1, Xanthine dehydrogenase/oxidase; test: Noncompetitive inhibition of bovine buttermilk xanthine oxidase by Lineweaver-burk plot analysis; settings: read-out: Kis

T1 sequence (P80457 whole entry): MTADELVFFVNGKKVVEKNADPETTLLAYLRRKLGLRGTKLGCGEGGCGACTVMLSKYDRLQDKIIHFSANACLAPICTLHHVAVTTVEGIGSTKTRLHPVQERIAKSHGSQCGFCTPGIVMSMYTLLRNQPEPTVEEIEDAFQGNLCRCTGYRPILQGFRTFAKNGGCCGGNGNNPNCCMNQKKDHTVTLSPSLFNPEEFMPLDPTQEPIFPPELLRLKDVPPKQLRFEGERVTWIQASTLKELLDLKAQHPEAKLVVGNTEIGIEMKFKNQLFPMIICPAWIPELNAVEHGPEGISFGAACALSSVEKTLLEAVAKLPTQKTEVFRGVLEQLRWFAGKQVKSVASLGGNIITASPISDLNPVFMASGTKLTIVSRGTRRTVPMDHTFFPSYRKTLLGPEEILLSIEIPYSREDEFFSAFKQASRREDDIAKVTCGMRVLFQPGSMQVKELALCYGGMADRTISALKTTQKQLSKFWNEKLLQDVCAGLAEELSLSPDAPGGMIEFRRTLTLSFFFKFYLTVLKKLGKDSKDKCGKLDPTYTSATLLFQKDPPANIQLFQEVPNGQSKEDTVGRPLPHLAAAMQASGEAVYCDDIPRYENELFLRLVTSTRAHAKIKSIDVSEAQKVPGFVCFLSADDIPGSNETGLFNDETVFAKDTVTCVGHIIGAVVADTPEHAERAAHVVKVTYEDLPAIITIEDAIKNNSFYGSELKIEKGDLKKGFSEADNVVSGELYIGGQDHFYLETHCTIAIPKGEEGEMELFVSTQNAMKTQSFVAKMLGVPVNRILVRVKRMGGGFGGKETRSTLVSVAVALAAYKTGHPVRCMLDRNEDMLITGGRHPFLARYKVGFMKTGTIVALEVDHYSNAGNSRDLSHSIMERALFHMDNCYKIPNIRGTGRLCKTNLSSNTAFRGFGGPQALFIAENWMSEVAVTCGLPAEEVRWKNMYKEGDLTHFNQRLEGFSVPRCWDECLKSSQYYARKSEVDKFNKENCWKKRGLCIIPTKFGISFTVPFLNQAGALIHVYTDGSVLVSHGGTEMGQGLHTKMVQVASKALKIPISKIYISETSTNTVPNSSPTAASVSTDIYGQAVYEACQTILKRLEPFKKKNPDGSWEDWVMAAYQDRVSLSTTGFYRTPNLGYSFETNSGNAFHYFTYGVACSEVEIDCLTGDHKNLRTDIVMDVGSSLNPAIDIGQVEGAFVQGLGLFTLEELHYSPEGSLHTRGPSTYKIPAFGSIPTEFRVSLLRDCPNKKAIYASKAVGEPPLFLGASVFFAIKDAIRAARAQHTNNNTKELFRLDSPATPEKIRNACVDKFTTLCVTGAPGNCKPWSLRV

inhibition (INH) [1] | Ki [2] [µM] | Compound
Not Active | – | O=C1Cc2[nH]ccc2C(=O)O1
– | 120 | CN1C(=O)Cc2[nH]ccc2C1=O
– | 92.5 | O=C1Cc2[nH]ccc2C(=O)N1

— ChEMBL document CHEMBL3244314, “Synthesis and xanthine oxidase inhibitory analysis of 1H-pyrrolo[3,2-c]pyridine-4,6(5H,7H)-dione (3,7-dideazaxanthine) and two of its derivatives” (J Med Chem, 1978)
